The values that follow come from patent US20140045885A1, “Decoquinate, 4-hydroxyquinolones and napthoquinones combined with levamisole, Imidazothiazole, for the prevention and treatment of sarcocystosis and equine protozoal myeloencephalitis caused by Sarcocystis and Neospora and other apicomplexan protozoans” (priority 2012, published 2014).

Data set [1] concerns Sarcocystis neurona merozoites (SN3 strain). To be noted: cited from earlier work.
Data set [2] concerns S. neurona infections or EPM. The data set is described as follows: Trial in horses with presumptive diagnosis of EPM. Type of data set: in vivo, horse. The procedure:
A trial was initiated in which veterinarians conducted neurological examinations and determined a presumptive diagnosis of EPM. […] The phenotype of S. neurona eliciting antibody production was determined for each animal. […] A neurological exam was conducted at the end of the treatment period and two to four weeks following treatment. Two to four weeks after treatment antibody levels were again assessed for serum antibody levels to S. neurona by phenotype. […] Veterinarians involved in the study elected to start decoquinate therapy at 0.05 mG/kG if the animals had received anti-protozoal therapy in the past and the case was considered a relapse of EPM.

Data set [3] in a line: Safety at the treatment dose in 150 horses. The class given is in vivo, horse. To be noted: decoquinate 0.5 mG/kG and levamisole 1 mG/kG alone and in combination.
Data set [4] concerns Sarcocystis neurona merozoites (SN3 strain). The note with it: 0.1 microgram/ml decoquinate for 10 or 20 minutes, washed off, cultures maintained 16 days, controls 25% CPE; cited from earlier work.
The subject of data set [5] is Sarcocystis neurona merozoites (SN6 strain). To be noted: 0.1 microgram/ml decoquinate for 5 or 15 minutes, washed off, read at 6 weeks; cited from earlier work.
Data set [6] relates to Sarcocystis neurona merozoites (SN2 strain). To be noted: 0.1 microgram/ml decoquinate for 10 or 20 minutes, washed off, cultures maintained 16 days, controls 40% CPE; cited from earlier work.
The conditions of data set [7]: cited from earlier work.
In the next data set the test system is EPM. To be noted: cited from earlier work; for cure rate / relapse rate: EPM treatment in horses; for efficacy in horses to improve one grade of disease: EPM treatment.
Another data set relates to S. neurona. To be noted: cell cultures infected with S. neurona; cited from earlier work.
For data set [8] the following is noted: in vivo; cited from earlier work.
The conditions of data set [9]: cited from earlier work. This is another data set of the same source.
Setting [10] is: horses, 5 mg/kg daily for 10 days.

Where two headings read alike, the source gives them in different places.

Take `CCCCCCCCCCOc1cc2c(O)c(C(=O)OCC)cnc2cc1OCC` [decoquinate, 6-declyoxy-7-ethoxy-4-hydroxy-3-quinoline-carboxylic acid ethyl ester]: the entries for the “reduction in merozoite production” value in data set [1] (0.0001 microgram/ml continuously for 10 days), in [1] (0.001 microgram/ml continuously for 10 days) and in data set [1] (0.01 microgram/ml continuously for 10 days) were 40%, 87% and 98%, respectively. Also, the “time of therapy until noted improvement” value in [2] (decoquinate alone 0.05 mG/kG versus decoquinate/levamisole 0.5 mG/kG and 1.0 mg/kG) is given as above 5 days. Also, the “treatment outcome in mildly afflicted horses” value in [2] (prevention dose 0.05 mG/kG decoquinate alone, 90 days, 7 horses) is listed as “success obtained in all the horses”. The “success in historically relapsing horses” value in data set [2] (relapse cases after Marquis (17) or pyrimethamine/sulfadiazine (2), decoquinate therapy started at 0.05 mG/kG) was determined as 100%. Moreover, the adverse reactions entry in [3] is recorded as “no adverse reactions”. The “parasites or parasite induced lesions in treated infected flasks” value in data set [4] and in data set [5] was “No parasites or parasite induced lesions were seen” throughout. In addition, the “cytopathic effect (CPE)” value in [6] is on record as 5%.
On to `N#CC(c1ccc(Cl)cc1)c1c(Cl)cc(-n2ncc(=O)[nH]c2=O)cc1Cl` (stereo not shown) [diclazuril], for which, in data set [7] (fed to horses), the “time after feeding at which drug was found in serum” value is recorded as “one”. In the data set on EPM, the cure rate result is “less than 25%”, the relapse rate is on record as 60% and the “efficacy in horses to improve one grade of disease” value is reported as 60%. In the data set on S. neurona, the “anti-S. neurona activity in cell cultures” value is on record as “has anti-S. neurona activity”.
In the case of `c1ccc([C@H]2CN3CCSC3=N2)cc1` [levamisole], the adverse reactions result in [3] is “no adverse reactions”.
In the case of `Cc1cc(-n2c(=O)[nH]c(=O)n(C)c2=O)ccc1Oc1ccc(SC(F)(F)F)cc1` [toltrazuril], the “complications, serum chemistry values, complete blood counts” value in data set [8] is “has not been shown to result in any complications”. Further, the lipid solubility result in data set [9] is listed as “good lipid solubility”. In data set [7] (setting [10]), the “mean CSF concentration” value was 160 µg/mL and the plasma levels was 20000 ng/mL. For the same compound, in data set [7] (in vivo, po), the oral absorption entry is reported as “good oral absorption”. Besides, the elimination time in data set [7] (in vivo) was 48 to 72 h. In addition, in the data set with EPM, the cure rate result is “less than 25%”, the relapse rate is on record as 60% and the “efficacy in horses to improve one grade of disease” value is on record as 60%.
